Assay results taken from patent US20230414735A1, “NEOANTIGENS AND METHODS OF THEIR USE” (priority 2016, published 2023).
Where two headings read alike, the source gives them in different places. Where no end group is shown, it is not given here.

Experiments:
HLA Class I molecules = assay: HLA class I binding stability assay (pMHC-I complex dissociation, 125I-labeled β2m, scintillation counts); design: species or system human
Experimental: These reactions are carried out in streptavidin coated microplates to bind th biotinylated MHC-I heavy chains to the surface and allow measurement of radiolabeled light chain to monitor complex formation. Dissociation is initiated by addition of higher concentations of unlabled light-chain and incubation at 37° C. Stability is defined as the length of time in hours it takes for half of the complexes to dissociate, as measured by scintillation counts

HLA class I molecule = assay: HLA class I peptide binding affinity assay (inhibition of 125I-radiolabeled probe peptide binding to purified HLA); design: species or system human; details: read-out: Observed Affinity (IC50, (nM))
Experimental: Epstein-Barr virus (EBV)-transformed homozygous cell lines, fibroblasts, CIR, or 721.22 transfectants are used as sources of HLA class I molecules. […] HLA molecules are purified from lysates by affinity chromatography. The lysates are passed over a column of Sepharose CL-4B beads coupled to an appropriate antibody. […] A 1/25 volume of 2.0 M Tris, pH 6.8, is added to the eluate to reduce the pH to […]. Eluates are then concentrated by centrifugation in Centriprep 30 concentrators (Amicon, Beverly, MA). Protein content is evaluated by a BCA protein assay (Pierce Chemical Co., Rockford, IL) and confirmed by SDS-PAGE.
Following incubation, MHC-peptide complexes are separated from free peptide by gel filtration on 7.8 mm×15 cm TSK200 columns (TosoHaas 16215, Montgomeryville, PA). Because the large size of the radiolabeled peptide used for the DRB1*1501 (DR2w2(31) assay makes separation of bound from unbound peaks more difficult under these conditions, all DRB1*1501 (DR2w2(31) assays were performed using a 7.8 mm×30 cm TSK2000 column eluted at 0.6 mLs/min. The eluate from the TSK columns is passed through a Beckman 170 radioisotope detector, and radioactivity is plotted and integrated using a Hewlett-Packard 3396A integrator, and the fraction of peptide bound is determined.
Radiolabeled peptides are iodinated using the chloramine-T method. […] All subsequent inhibition and direct binding assays are performed using these HLA concentrations.
Since under these conditions [label]<[HLA] and IC50≥[HLA], the measured IC50 values are reasonable approximations of the true KD values. […] For database purposes, and inter-experiment comparisons, relative binding values are compiled. These values can subsequently be converted back into IC50 nM values by dividing the IC50 nM of the positive controls for inhibition by the relative binding of the peptide of interest.
HLA binding assays were used to evaluate either the affinity of interaction of a given epitope with a selected HLA molecule or the stability.
The measurements are plotted against the predicted affinity in FIG. 1.

[1] = allele A02.01, pMHC-I dissociation at 37° C.

Compound	IC50 (HLA class I molecule; allele A02.01)	further results
C[C@H](NC(=O)[C@H](CO)NC(=O)[C@H](C)NC(=O)[C@@H]1CCCN1C(=O)[C@H](C)NC(=O)[C@@H]1CCCN1C(=O)[C@H](CCCNC(=N)N)NC(=O)[C@@H]1CCCN1C(=O)[C@@H](N)Cc1c[nH]cn1)C(=O)O		Stability (T1/2 (h)) (HLA Class I molecules; allele B07.02, 37° C.): 4.9 h
KLFSCLSFLS	0.6 nM	
CSCC[C@H](NC(=O)[C@@H](NC(=O)[C@H](Cc1ccc(O)cc1)NC(=O)[C@H](C)NC(=O)[C@H](CCSC)NC(=O)[C@@H](NC(=O)[C@@H](N)Cc1ccc(O)cc1)C(C)C)C(C)C)C(=O)N[C@@H](C)C(=O)NCC(=O)N[C@H](C(=O)O)C(C)C		Stability (T1/2 (h)) (HLA Class I molecules; allele A02.01, 37° C.): 20.9 h
MNWRPILTI		Stability (T1/2 (h)) (HLA Class I molecules; allele A02.01, 37° C.): 3.8 h
NVVPLNDLL	2900 nM	
ALEEKKGNYV	141 nM	
IIIEYCFYG		Stability (T1/2 (h)) (HLA Class I molecules; allele A02.01, 37° C.): 1.2 h
QLIMQLMPFG	5930 nM	
SLKKVPALK		IC50 (HLA class I molecule; Allele A11.01): 129 nM
CSCC[C@H](NC(=O)[C@H](CC(C)C)NC(=O)[C@H](CCC(N)=O)NC(=O)[C@@H](N)CCSC)C(=O)N1CCC[C@H]1C(=O)N[C@@H](Cc1ccccc1)C(=O)NCC(=O)N[C@@H](CS)C(=O)N[C@@H](CC(C)C)C(=O)N[C@@H](CC(C)C)C(=O)O		Stability (T1/2 (h)) (HLA Class I molecules; [1]): 0.4 h
FFFSVIFST	4560 nM	
QQQSDLQPPA	646 nM	
TQISSATEYL	2640 nM	
LQVTQTSFAL [LQVTQTSFAL]	718 nM	
LKKLRSPL		IC50 (HLA class I molecule; allele B08.01): 0.6 nM
RLSSCVPVAL [RLSSCVPVAL]	54.2 nM	
SAMTTSSSQK		IC50 (HLA class I molecule; Allele A11.01): 15.8 nM
MLTGPPARV	10.6 nM	
LLQVTQTSFA	677 nM	
LTSTVQLIM		IC50 (HLA class I molecule; allele A01.01): 2890 nM
YITAFFLLDI	64.5 nM	

Compound	IC50 (HLA class I molecule; allele A02.01)	further results
QTGVMICAYL	9760 nM	
LPRKPTRAAT		Stability (T1/2 (h)) (HLA Class I molecules; allele B07.02, 37° C.): 3.7 h
SLYIVGFYG	1060 nM	
NSFEVHVCA	503 nM	
FQNGKMALS [FQNGKMALS]	3280 nM	
ILDTAGREEY		IC50 (HLA class I molecule; allele A01.01): 7 nM
LQEFDVQEAL [LQEFDVQEAL]	50300 nM	
CC[C@H](C)[C@H](NC(=O)[C@H](Cc1ccccc1)NC(=O)[C@H](CCCNC(=N)N)NC(=O)[C@@H]1CCCN1C(=O)[C@H](CC(C)C)NC(=O)[C@@H](N)CO)C(=O)N[C@@H](CC(C)C)C(=O)N[C@@H](CCSC)C(=O)N[C@@H](CCC(=O)O)C(=O)N[C@@H](CC(C)C)C(=O)O		Stability (T1/2 (h)) (HLA Class I molecules; [1]): 0.5 h; Stability (T1/2 (h)) (HLA Class I molecules; allele B07.02, pMHC-I dissociation at 37° C.): 0.4 h
IANLLGACTI	6420 nM	
CC[C@H](C)[C@H](NC(=O)[C@H](CO)NC(=O)[C@H](Cc1c[nH]c2ccccc12)NC(=O)[C@H](Cc1c[nH]cn1)NC(=O)[C@H](C)NC(=O)[C@@H]1CCCN1C(=O)[C@H](CCSC)NC(=O)[C@H](CC(C)C)NC(=O)[C@@H](N)CO)C(=O)O		Stability (T1/2 (h)) (HLA Class I molecules; allele A02.01, 37° C.): 5 h
ALFFFFFET	471 nM	
QQSDLQPPA	70 nM	
ILIRKAMTV	19.5 nM	
CC[C@H](C)[C@H](NC(=O)[C@H](CCCCN)NC(=O)[C@H](CO)NC(=O)[C@H](CCC(=O)O)NC(=O)[C@H](C)NC(=O)[C@H](CCCCN)NC(=O)[C@H](CC(C)C)NC(=O)[C@H](Cc1ccccc1)NC(=O)[C@H](CCSC)NC(=O)[C@@H](N)Cc1ccc(O)cc1)C(=O)O		Stability (T1/2 (h)) (HLA Class I molecules; allele A02.01, 37° C.): 0.6 h; Stability (T1/2 (h)) (HLA Class I molecules; allele B08.01, 37° C.): 0.4 h
TIGGPTLVII	10700 nM	
AQAGVQWRSL	670 nM	
GMNWRPILT	1130 nM	
LLDILDTAGL	716 nM	
IMSLWGLVS	7320 nM	
FELLPIPPL	553 nM	
CSCC[C@H](N)C(=O)N[C@@H](C)C(=O)N[C@@H](CC(N)=O)C(=O)NCC(=O)N[C@@H](CO)C(=O)N[C@@H](CC(C)C)C(=O)N[C@@H](CC(C)C)C(=O)N[C@@H](CC(N)=O)C(=O)N[C@@H](Cc1ccc(O)cc1)C(=O)O		IC50 (HLA class I molecule; allele A01.01): 439 nM

Compound	IC50 (HLA class I molecule; allele A02.01)	further results
LIVSRTLLLV	10900 nM	
FKLFSCLSFL	663 nM	
KITEQEKDFL	1400 nM	
KKLMLLRLNL	289 nM	
AFSGEYIPTV	781 nM	
IIEYCFYGDL	1090 nM	
ALWECSLPQA	9 nM	
FFFETKSCSV	61.2 nM	
ILDTAGLEEY		IC50 (HLA class I molecule; allele A01.01): 8.6 nM
VVPLSDLLL	2550 nM	
FVMSDTTYKI	62.4 nM	
TGSNEVTTRY		IC50 (HLA class I molecule; allele A01.01): 15500 nM
LATEKSRWS	61000 nM	IC50 (HLA class I molecule; allele B08.01): 37000 nM
ALQPLQPHA	604 nM	
CC[C@H](C)[C@H](N)C(=O)N[C@@H](CC(C)C)C(=O)N[C@@H](CC(=O)O)C(=O)N[C@H](C(=O)N[C@@H](C)C(=O)NCC(=O)N[C@@H](CCCCN)C(=O)N[C@@H](CCC(=O)O)C(=O)N[C@@H](CCC(=O)O)C(=O)N[C@@H](Cc1ccc(O)cc1)C(=O)O)[C@@H](C)O		IC50 (HLA class I molecule; allele A01.01): 14.3 nM
YTTNAFSGEY		IC50 (HLA class I molecule; allele A01.01): 10.5 nM
IIEFMTYGNL	9700 nM	
FELLSTPPL	225 nM	IC50 (HLA class I molecule; allele B08.01): 3180 nM
ILMELMAGGD	3450 nM	
NVVPLSDLL	916 nM	
